As a reminder, the HC50 is the concentration that lyses half of the red blood cells. A high value points to less damage to red cells.

We go through four compounds from patent publication US20100173832A1, “ANTICANCEROUS POLYMERIC AGENTS” (TECHNION RESEARCH & DEVELOPMENT FOUNDATION LTD., priority 2007, published 2010).

The test system of one data set is N-417 cell line. Nature of the data set: XTT cell viability assay, N-417 cells. It counts as cell-based. The conditions noted are these: 24 hours incubation, XTT; read-out: Cancer LC50 Human small-cell lung carcinoma N-417. The text has this: Variant small cell lung cancer cells (N-417, SCLC);
(§1) As a routine cancer cell killing assay for assessment of antitumor activity, 2,3-bis(2-methoxy-4-nitro-5-sulfophenyl)-2H-tetrazolium-5-carboxanilide inner salt (XTT) reduction assay was used, utilizing a commercial kit such as, for example, Cell Proliferation XTT Kit, Cat. No. 20-300-1000, Biological Industries Ltd., Kibbutz Beit Haemek, Israel. XTT is a tetrazolium salt which is cleaved to formazan colored compounds by the mitochondrial dehydrogenase enzymes indicating proper mitochondrial activity in intact cells.
(§2) Thereafter, a series of increasing concentrations of the polymers were added. After another 24 hours of incubation, XTT reaction solution was added (50 μl of XTT per 100 μl of cell culture medium). The optical density of the cells was measured at 450 nm by ELISA plate reader after 2-4 hours XTT incubation. Cell viability was determined relative to a control having no polymer added thereto.
“Human breast cancer MCF-7” represents the lethal concentration in μM as measured against MCF-7 cell line, measured as described hereinabove in the cell proliferation XTT assay (column 6 in Table 3); “Human small-cell lung carcinoma N-417” represents the lethal concentration in μM as measured against N-417 cell line, measured as described hereinabove in the cell proliferation XTT assay (column 7 in Table 3);
A general note: Tetrazolium assays rely on reduction of a dye to a coloured formazan, in cell work by metabolically active cells.

The next data set concerns MCF-7 cell line. It counts as cell-based. The conditions noted are these: for CC50: 24 hours incubation, XTT, read-out: Cancer LC50 Human breast cancer MCF-7.
The test system of data set [1] is ovarian carcinoma 2008 drug-sensitive cells. Nature of the data set: Cytotoxicity against drug-sensitive ovarian carcinoma 2008 cells. The conditions noted are these: read-out: LC50 against drug-sensitive 2008 cells.
The test system of data set [2] is drug-resistant 2008/MRP1 cells. The conditions noted are these: human, 3 day.
The test system of data set [3] is human red blood cells (RBC). Kind of data set: in vitro. The method, then:
(§3) The polymer's toxic potential was determined against human red blood cells (RBC) by measuring leakage of hemoglobin therefrom in phosphate buffer solution (PBS). Human blood samples were rinsed three times in PBS by centrifugation for 2 minutes at 200×g, and re-suspended in PBS at 5% hematocrit. A 50 μl-fractions of a suspension containing […] RBC were added to test tubes containing 200 μl of polymer solutions (2-fold serial dilutions in PBS), PBS alone (for base-line values), or distilled water (for 100% hemolysis). […] Controls for base-line hemolysis (blank) and 100% hemolysis consisted of RBC suspended in PBS and TritonX100 (0.2%), respectively.

The nature of a further data set: in vitro. The conditions noted are these: human, red blood cells. The method, then: as §3
In data set [4] the test system is drug-resistant 2008/MRP1 cells. Kind of data set: Cytotoxicity against drug-resistant 2008/MRP1 cells. The conditions noted are these: read-out: LC50 against drug-resistant 2008/MRP1 cells; 1 day exposure (overnight), FIG. 10.
Data set [5] is described as follows: XTT cell viability assay, non-cancerous cardiac fibroblasts (CF). It counts as cell-based, rat. The conditions noted are these: rat, primary non-cancerous cardiac fibroblasts (CF), 24 hours incubation, XTT, non-cancerous cells; read-out: Cancer LC50 Rat primary cardiac fibroblast CF.
The test system of the next data set is TRAMP-C2 cell line. It counts as cell-based. The conditions noted are these: for CC50: 24 hours incubation, XTT, read-out: Cancer LC50 Mouse prostate cancer TRAMP-C2.
From the text: Transgenic adenocarcinoma mouse prostate cells (TRAMP-C2);
as §1, §2
“Mouse prostate cancer TRAMP-C2” represents the lethal concentration in μM as measured against TRAMP-C2 cell line, measured as described hereinabove in the cell proliferation XTT assay (column 5 in Table 3);

Like-named read-outs stand apart in the source and are kept apart here. Non-standard residues stand in square brackets, D forms with d. Residues, ends and D or L forms follow the SMILES beside them. 12Ado = NCCCCCCCCCCCC(=O)O

Description for MCF-7 cell line: Human breast adenocarcinoma cells (MCF-7);
Thereafter, a series of increasing concentrations of the polymers were added. […] The optical density of the cells was measured at 450 nm by ELISA plate reader after 2-4 hours XTT incubation. Cell viability was determined relative to a control having no polymer added thereto.

Take `NCCCCCCCCCCCC(=O)N[C@@H](CCCCN)C(=O)N[C@@H](CCCCN)C(=O)NCCCCCCCCCCCC(=O)N[C@@H](CCCCN)C(=O)N[C@@H](CCCCN)C(=O)NCCCCCCCCCCCC(=O)N[C@@H](CCCCN)C(=O)N[C@@H](CCCCN)C(=O)NCCCCCCCCCCCC(=O)N[C@@H](CCCCN)C(N)=O` (H-[12Ado]KK[12Ado]KK[12Ado]KK[12Ado]K-NH2): the CC50 in the data set on N-417 cell line was 10 ± 1 µM; in the data set on MCF-7 cell line it was 7 ± 1 µM; in data set [1] (1 day exposure (overnight), FIG. 10), about 15 µM; in data set [2], 4 µM; in [4], about 15 µM; in the data set on TRAMP-C2 cell line, 15 µM. Further, the “hemolytic concentration versus cytotoxic concentration against cancer cells” value in data set [3] is recorded as “more than one order of magnitude higher”. The same compound displayed an HC50 at 3 h in the data set “in vitro” of over 100 µM. In addition, the CC50 at 24 h in data set [5] amounted to 35 ± 5 µM.
As for `NCCCC[C@H](NC(=O)CCCCCCCCCCCNC(=O)[C@H](CCCCN)NC(=O)[C@H](CCCCN)NC(=O)CCCCCCCCCCCNC(=O)[C@H](CCCCN)NC(=O)[C@H](CCCCN)NC(=O)CCCCCCCCCCCNC(=O)[C@@H](N)CCCCN)C(N)=O` [(KNC12K)3NH2] (H-K[12Ado]KK[12Ado]KK[12Ado]K-NH2), the CC50 is over 16 µM with N-417 cell line; over 16 µM in the data set with MCF-7 cell line; over 100 µM in [3] (read-out: LC50 RBC (hemolytic concentration inducing lysis of 50% of human red blood cells), 3 hours incubation at 37° C., hemoglobin leakage assay); over 16 µM with TRAMP-C2 cell line. Moreover, the HC50 at 3 h in “in vitro” is over 100 µM. For the same compound, in [5], the CC50 at 24 h was over 16 µM.
Regarding `NCCCCCCCCCCCC(=O)N[C@@H](CCCCN)C(=O)NCCCCCCCCCCCC(=O)N[C@@H](CCCCN)C(=O)N[C@@H](CCCCN)C(=O)NCCCCCCCCCCCC(=O)N[C@@H](CCCCN)C(=O)N[C@@H](CCCCN)C(=O)NCCCCCCCCCCCC(=O)N[C@@H](CCCCN)C(N)=O` [NC12(KNC12K)3NH2] (H-[12Ado]K[12Ado]KK[12Ado]KK[12Ado]K-NH2), the figures for the CC50 with N-417 cell line, with MCF-7 cell line and in the data set on TRAMP-C2 cell line were over 16 µM, 7 ± 1 µM and over 16 µM, respectively. The “hemolytic concentration versus cytotoxic concentration against cancer cells” value in data set [3] is “more than one order of magnitude higher”. Moreover, the HC50 at 3 h in “in vitro” was over 100 µM. Further, in [5], the CC50 at 24 h came to 37 ± 1 µM.
In the data set with MCF-7 cell line (human breast adenocarcinoma MCF-7 cells, XTT assay), `COc1cccc2c1C(=O)c1c(O)c3c(c(O)c1C2=O)C[C@@](O)(C(=O)CO)C[C@@H]3O[C@H]1C[C@H](N)[C@H](O)[C@H](C)O1` [doxorubicin, reference compound] displayed an MCF-7 lethal concentration of 3.3 ± 2 µM. The CC50 in data set [1] (Homo sapiens, 72 h) was 0.035 µM. The same compound showed a TRAMP-C2 lethal concentration in the data set on TRAMP-C2 cell line (mouse prostate cancer TRAMP-C2 cells, XTT assay) of 0.5 ± 0.5 µM.
